Experimental data reported in ChEMBL document CHEMBL4043230, “Synthesis and biological evaluation of peptide-derived TSLP inhibitors” (Bioorg Med Chem Lett, 2017).
Where a SMILES comes first, the peptide text is derived from it.

Experiments:
[1] = molecular target: Thymic stromal lymphopoietin (Homo sapiens) (UniProt Q969D9); experiment: Inhibition of human N-terminal flag-tagged TSLP/human C-terminal octa histidine-tagged TSLPR interaction at 0.1 mM after 16 hrs by ELISA based spectrophotometric analysis
Chain of Thymic stromal lymphopoietin (Homo sapiens) (Q969D9 whole entry): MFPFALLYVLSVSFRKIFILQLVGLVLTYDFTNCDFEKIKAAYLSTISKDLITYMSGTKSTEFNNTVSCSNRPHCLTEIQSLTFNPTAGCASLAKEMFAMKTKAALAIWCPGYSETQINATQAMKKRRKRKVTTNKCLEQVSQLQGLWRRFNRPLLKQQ

[2] = molecular target: Thymic stromal lymphopoietin (Homo sapiens) (UniProt Q969D9); experiment: Inhibition of human N-terminal flag-tagged TSLP/human C-terminal octa histidine-tagged TSLPR interaction at 0.3 mM after 16 hrs by ELISA based spectrophotometric analysis
[3] = molecular target: Thymic stromal lymphopoietin (Homo sapiens) (UniProt Q969D9); experiment: Inhibition of human N-terminal flag-tagged TSLP/human C-terminal octa histidine-tagged TSLPR interaction at 1 mM after 16 hrs by ELISA based spectrophotometric analysis relative to control

Row | Structure (SMILES) | inhibition [1] | inhibition [2] | inhibition [3]
1 | CC(=O)N[C@@H](C)C(=O)N[C@@H](C)C(=O)N[C@@H](Cc1cnc[nH]1)C(=O)N[C@@H](Cc1ccc(O)cc1)C(=O)NCC(=O)N[C@@H](CC(C)C)C(=O)N[C@@H](CCC(=O)O)C(=O)O (Ac-AAHYGLE-OH) | 4% | 11% | 37%
2 | CC(=O)N[C@@H](C)C(=O)N[C@@H](C)C(=O)N[C@@H](Cc1cnc[nH]1)C(=O)N[C@@H](Cc1ccc(O)cc1)C(=O)NCC(=O)N[C@@H](CC(C)C)C(=O)N[C@@H](CCC(=O)O)C(=O)N[C@@H](C)C(=O)O (Ac-AAHYGLEA-OH) | 2% | 4% | 26%
3 | CC(=O)N[C@@H](CCCNC(=N)N)C(=O)N[C@@H](C)C(=O)N[C@@H](C)C(=O)N[C@@H](Cc1cnc[nH]1)C(=O)N[C@@H](Cc1ccc(O)cc1)C(=O)NCC(=O)N[C@@H](CC(C)C)C(=O)N[C@@H](CCC(=O)O)C(=O)O (Ac-RAAHYGLE-OH) | 5% | 15% | 52%
4 | CC(=O)N[C@@H](CCCNC(=N)N)C(=O)N[C@@H](C)C(=O)N[C@@H](C)C(=O)N[C@@H](Cc1cnc[nH]1)C(=O)N[C@@H](Cc1ccc(O)cc1)C(=O)NCC(=O)N[C@@H](CC(C)C)C(=O)N[C@@H](CCC(=O)O)C(=O)N[C@@H](C)C(=O)O (Ac-RAAHYGLEA-OH) | 12% | 11% | 34%
5 | CC(C)C[C@H](NC(=O)CNC(=O)[C@H](Cc1ccc(O)cc1)NC(=O)[C@H](Cc1cnc[nH]1)NC(=O)[C@H](C)NC(=O)[C@H](C)N)C(=O)N[C@@H](CCC(=O)O)C(=O)O (H-AAHYGLE-OH) | 2% | 3% | 16%
6 | CC(C)C[C@H](NC(=O)CNC(=O)[C@H](Cc1ccc(O)cc1)NC(=O)[C@H](Cc1cnc[nH]1)NC(=O)[C@H](C)NC(=O)[C@H](C)N)C(=O)N[C@@H](CCC(=O)O)C(=O)N[C@@H](C)C(=O)O (H-AAHYGLEA-OH) | 5% | 23% | 59%
7 | CC(C)C[C@H](NC(=O)CNC(=O)[C@H](Cc1ccc(O)cc1)NC(=O)[C@H](Cc1cnc[nH]1)NC(=O)[C@H](C)NC(=O)[C@H](C)NC(=O)[C@@H](N)CCCNC(=N)N)C(=O)N[C@@H](CCC(=O)O)C(=O)O (H-RAAHYGLE-OH) | 4% | 10% | 45%
8 | CC(C)C[C@H](NC(=O)CNC(=O)[C@H](Cc1ccc(O)cc1)NC(=O)[C@H](Cc1cnc[nH]1)NC(=O)[C@H](C)NC(=O)[C@H](C)NC(=O)[C@@H](N)CCCNC(=N)N)C(=O)N[C@@H](CCC(=O)O)C(=O)N[C@@H](C)C(=O)O (H-RAAHYGLEA-OH) | 7% | 17% | 35%

The remaining lines, values ahead:

Row | inhibition [1] | inhibition [2] | inhibition [3] | Structure (SMILES)
9 | 30% | 30% | 26% | CC(=O)N[C@@H](C)C(=O)N[C@@H](CCCNC(=N)N)C(=O)N[C@@H](CCC(N)=O)C(=O)N[C@@H](CCCNC(=N)N)C(=O)N[C@@H](C)C(=O)N[C@@H](CO)C(=O)N[C@@H](C)C(=O)O (Ac-ARQRASA-OH)
10 | 50% | 56% | 65% | CC(=O)N[C@@H](C)C(=O)N[C@@H](CCCNC(=N)N)C(=O)N[C@@H](CCC(N)=O)C(=O)N[C@@H](CCCNC(=N)N)C(=O)N[C@@H](C)C(=O)N[C@@H](CO)C(=O)N[C@@H](C)C(=O)N[C@@H](Cc1c[nH]c2ccccc12)C(=O)O (Ac-ARQRASAW-OH)
11 | 22% | 22% | 18% | CC(=O)N[C@@H](CCCNC(=N)N)C(=O)N[C@@H](CCC(N)=O)C(=O)N[C@@H](CCCNC(=N)N)C(=O)N[C@@H](C)C(=O)N[C@@H](CO)C(=O)N[C@@H](C)C(=O)O (Ac-RQRASA-OH)
12 | 38% | 44% | 56% | CC(=O)N[C@@H](CCCNC(=N)N)C(=O)N[C@@H](CCC(N)=O)C(=O)N[C@@H](CCCNC(=N)N)C(=O)N[C@@H](C)C(=O)N[C@@H](CO)C(=O)N[C@@H](C)C(=O)N[C@@H](Cc1c[nH]c2ccccc12)C(=O)O (Ac-RQRASAW-OH)
13 | 30% | 32% | 30% | C[C@H](N)C(=O)N[C@@H](CCCNC(=N)N)C(=O)N[C@@H](CCC(N)=O)C(=O)N[C@@H](CCCNC(=N)N)C(=O)N[C@@H](C)C(=O)N[C@@H](CO)C(=O)N[C@@H](C)C(=O)O (H-ARQRASA-OH)
14 | 42% | 49% | 60% | C[C@H](N)C(=O)N[C@@H](CCCNC(=N)N)C(=O)N[C@@H](CCC(N)=O)C(=O)N[C@@H](CCCNC(=N)N)C(=O)N[C@@H](C)C(=O)N[C@@H](CO)C(=O)N[C@@H](C)C(=O)N[C@@H](Cc1c[nH]c2ccccc12)C(=O)O (H-ARQRASAW-OH)
15 | 19% | 15% | 18% | C[C@H](NC(=O)[C@H](CO)NC(=O)[C@H](C)NC(=O)[C@H](CCCNC(=N)N)NC(=O)[C@H](CCC(N)=O)NC(=O)[C@@H](N)CCCNC(=N)N)C(=O)O (H-RQRASA-OH)
16 | 38% | 47% | 46% | C[C@H](NC(=O)[C@H](CO)NC(=O)[C@H](C)NC(=O)[C@H](CCCNC(=N)N)NC(=O)[C@H](CCC(N)=O)NC(=O)[C@@H](N)CCCNC(=N)N)C(=O)N[C@@H](Cc1c[nH]c2ccccc12)C(=O)O (H-RQRASAW-OH)
